Assay results from ChEMBL document CHEMBL1667744, “Structure--activity relationship studies of 1-(4-chloro-2,5-dimethoxyphenyl)-3-(3-propoxypropyl)thiourea, a non-nucleoside reverse transcriptase inhibitor of human immunodeficiency virus type-1” (Eur J Med Chem, 2011).

Tested on: Human immunodeficiency virus 1
Assay: Antiviral activity against HIV1 pseudovirus infected in human B cell assessed as inhibition of infection at 5 uM after 48 to 72 hrs by flow cytometry
Assay type: functional
Settings: Human immunodeficiency virus 1, B

| Compound | inhibition at 5 µM [%] |
| --- | --- |
| COc1cc(N=C(S)NCCCO)c(OC)cc1Cl | 92 |
| CCCOCCCNC(=S)Nc1cc(OCC)c(Cl)cc1OCC | 58 |
| CCCOCCCNC(=S)Nc1cc(OCCC)c(Cl)cc1OCCC | 107 |
| CCCOCCCNC(=S)Nc1cc(OC)c([N+](=O)[O-])cc1OC | 107 |
| CCCOCCCNC(=O)Nc1cc(OC)c(Cl)cc1OC | 47 |
| CCCCCCCNC(=O)Nc1cc(OC)c(Cl)cc1OC | 89 |
| CCCOCCNC(=S)Nc1cc(OC)c(Cl)cc1OC | 46 |
| COCCCNC(=S)Nc1cc(OC)c(Cl)cc1OC | 105 |
| CCOCCCNC(=S)Nc1cc(OC)c(Cl)cc1OC | 66 |
| CCCCCCNC(=S)Nc1cc(OC)c(Cl)cc1OC | 87 |
| CCCCCCCNC(=S)Nc1cc(OC)c(Cl)cc1OC | 87 |
| CCCCCCNC(=S)Nc1cc(OCC)c(Cl)cc1OCC | 107 |
| CCCCCCCNC(=S)Nc1cc(OCC)c(Cl)cc1OCC | 69 |
| CCCSCCCNC(=S)Nc1cc(OC)c(Cl)cc1OC | 24 |
| CCC[S+]([O-])CCCNC(=S)Nc1cc(OC)c(Cl)cc1OC (stereo not drawn) | 91 |
| CCCNCCCNC(=S)Nc1cc(OC)c(Cl)cc1OC | 83 |
| CCCC(=O)OCCCN/C(=N/c1cc(OC)c(Cl)cc1OC)SC(=O)CCC | 87 |

| Compound | inhibition at 5 µM [%] |
| --- | --- |
| CCCC(=O)OCCCNC(=S)Nc1cc(OC)c(Cl)cc1OC | 65 |
| CCC(=O)OCCCNC(=S)Nc1cc(OC)c(Cl)cc1OC | 86 |
| COc1cc(NC(=S)NCCCOC(C)=O)c(OC)cc1Cl | 123 |
| CCCCOC(=O)CCNC(=S)Nc1cc(OC)c(Cl)cc1OC | 43 |
| CCCOC(=O)CCNC(=S)Nc1cc(OC)c(Cl)cc1OC | 66 |
| COC(=O)CCNC(=S)Nc1cc(OC)c(Cl)cc1OC | 56 |
| CCOC(=O)CCNC(=S)Nc1cc(OC)c(Cl)cc1OC | 66 |
| COc1cc(NC(=S)NCCC(=O)O)c(OC)cc1Cl | 91 |
| COC(=O)CCCNC(=S)Nc1cc(OC)c(Cl)cc1OC | 73 |
| CCOC(=O)CCCNC(=S)Nc1cc(OC)c(Cl)cc1OC | 24 |
| CCCOC(=O)CCCNC(=S)Nc1cc(OC)c(Cl)cc1OC | 17 |
| CCCCOC(=O)CCCNC(=S)Nc1cc(OC)c(Cl)cc1OC | 29 |
| CCCNC(=O)CCCNC(=S)Nc1cc(OC)c(Cl)cc1OC | 69 |
| CCCSC(=O)CCCNC(=S)Nc1cc(OC)c(Cl)cc1OC | 79 |
| COC(=O)CCCNC(=O)Nc1cc(OC)c(Cl)cc1OC | 87 |
| CCOC(=O)CCCNC(=O)Nc1cc(OC)c(Cl)cc1OC | 65 |
| COc1cc(NC(=S)N2CCCC2=O)c(OC)cc1Cl | 104 |

Tested on: not listed separately
Assay: Cytotoxicity against HIV1 pseudovirus infected in human B cells
Assay type: cell-based
Settings: b cell

| Compound | Activity |
| --- | --- |
| CCCSCCCNC(=O)Nc1cc(OC)c(Cl)cc1OC | Toxic |
| CCCN(CCCNC(=S)Nc1cc(OC)c(Cl)cc1OC)C(=O)OC(C)(C)C | Toxic |

Tested on: Human immunodeficiency virus 1
Assay: Antiviral activity against HIV1 pseudovirus infected in human B cell assessed as inhibition of infection
Assay type: functional, organism-based
Settings: Human immunodeficiency virus 1, B

| Compound | IC50 [µM] |
| --- | --- |
| CCCOC(=O)CCCNC(=S)Nc1cc(OC)c(Cl)cc1OC | 0.0011 |
| CCCOCCCNC(=S)Nc1cc(OC)c(Cl)cc1OC | 0.168 |
